Measurements: ChEMBL document CHEMBL1126493, “Conformationally constrained analogues of diacylglycerol (DAG). 4. Interaction of -alkylidene--lactones with protein kinase C (PK-C)” (Bioorg Med Chem Lett, 1993)

Tests used:
[1] = target: Protein kinase C, PKC; classical/novel; experiment: Inhibition of [20-3H]phorbol-12,13-dibutyrate (PDBU) binding to protein kinase C; type: protein assay
[2] = target: Protein kinase C alpha type (Homo sapiens, UniProt P17252); experiment: Inhibition of [20-3H]phorbol-12,13-dibutyrate (PDBU) binding to protein kinase C (alpha)

Ki [1] | Ki [2] | Compound
0.6 µM | 0.5 µM | CCCCCCCCCCCCCC[C@H]1C(=O)O[C@@H](CO)[C@@H]1OC(C)=O
– | 0.6 µM | CCCCCCCCCCCCCC[C@@H]1C(=O)O[C@@H](CO)[C@@H]1OC(C)=O
